Two compounds from publication PMC13110364, “Design, Synthesis, and Biological Evaluation of Novel Triazine‐Based Dual Histone Deacetylase/phosphatidylinositol 3‐kinase Inhibitors for Breast Cancer Therapy” (Chemmedchem, 2026) can be followed below.

Values joined by “and” are separate entries in the source; they are usually repeats but may differ in a detail not shown here. Identical values can stand only once.

The target in one assay is PI3Kα (Homo sapiens, UniProt P42336). The assay can be described thus: PI3Kα inhibition, 10-dose IC50 (Reaction Biology Corporation). The assay is classed as biochemical.
Sequence of PI3Kα (P42336 whole entry, canonical isoform): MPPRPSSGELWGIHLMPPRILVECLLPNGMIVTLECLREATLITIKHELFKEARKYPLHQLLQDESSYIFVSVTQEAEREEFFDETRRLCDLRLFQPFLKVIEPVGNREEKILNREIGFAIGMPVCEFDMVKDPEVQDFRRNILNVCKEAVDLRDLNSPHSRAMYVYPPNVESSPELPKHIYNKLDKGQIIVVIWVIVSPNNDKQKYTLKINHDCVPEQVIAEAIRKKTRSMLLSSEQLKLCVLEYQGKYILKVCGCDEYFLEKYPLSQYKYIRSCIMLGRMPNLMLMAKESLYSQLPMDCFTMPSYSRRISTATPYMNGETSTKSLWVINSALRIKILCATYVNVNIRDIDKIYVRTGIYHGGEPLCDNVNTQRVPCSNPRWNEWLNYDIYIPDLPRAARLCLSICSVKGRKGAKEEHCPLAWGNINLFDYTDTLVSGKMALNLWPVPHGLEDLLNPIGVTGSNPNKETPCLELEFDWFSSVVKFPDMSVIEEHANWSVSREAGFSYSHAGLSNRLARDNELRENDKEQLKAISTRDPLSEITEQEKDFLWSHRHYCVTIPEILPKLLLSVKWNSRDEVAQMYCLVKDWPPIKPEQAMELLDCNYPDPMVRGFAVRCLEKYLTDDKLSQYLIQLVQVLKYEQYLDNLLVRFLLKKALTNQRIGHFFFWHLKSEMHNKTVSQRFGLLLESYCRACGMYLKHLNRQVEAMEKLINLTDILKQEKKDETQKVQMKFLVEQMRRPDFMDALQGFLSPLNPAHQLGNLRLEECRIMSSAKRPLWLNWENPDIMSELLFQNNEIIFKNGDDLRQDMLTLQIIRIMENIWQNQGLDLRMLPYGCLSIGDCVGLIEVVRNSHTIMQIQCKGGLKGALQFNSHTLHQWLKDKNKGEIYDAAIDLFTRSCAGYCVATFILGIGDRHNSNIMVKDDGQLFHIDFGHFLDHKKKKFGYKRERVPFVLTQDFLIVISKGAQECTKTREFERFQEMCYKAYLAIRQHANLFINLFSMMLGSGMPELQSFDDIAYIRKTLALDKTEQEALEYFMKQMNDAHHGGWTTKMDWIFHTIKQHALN
Sequence of PI3Kα (P27986 whole entry partner, canonical isoform): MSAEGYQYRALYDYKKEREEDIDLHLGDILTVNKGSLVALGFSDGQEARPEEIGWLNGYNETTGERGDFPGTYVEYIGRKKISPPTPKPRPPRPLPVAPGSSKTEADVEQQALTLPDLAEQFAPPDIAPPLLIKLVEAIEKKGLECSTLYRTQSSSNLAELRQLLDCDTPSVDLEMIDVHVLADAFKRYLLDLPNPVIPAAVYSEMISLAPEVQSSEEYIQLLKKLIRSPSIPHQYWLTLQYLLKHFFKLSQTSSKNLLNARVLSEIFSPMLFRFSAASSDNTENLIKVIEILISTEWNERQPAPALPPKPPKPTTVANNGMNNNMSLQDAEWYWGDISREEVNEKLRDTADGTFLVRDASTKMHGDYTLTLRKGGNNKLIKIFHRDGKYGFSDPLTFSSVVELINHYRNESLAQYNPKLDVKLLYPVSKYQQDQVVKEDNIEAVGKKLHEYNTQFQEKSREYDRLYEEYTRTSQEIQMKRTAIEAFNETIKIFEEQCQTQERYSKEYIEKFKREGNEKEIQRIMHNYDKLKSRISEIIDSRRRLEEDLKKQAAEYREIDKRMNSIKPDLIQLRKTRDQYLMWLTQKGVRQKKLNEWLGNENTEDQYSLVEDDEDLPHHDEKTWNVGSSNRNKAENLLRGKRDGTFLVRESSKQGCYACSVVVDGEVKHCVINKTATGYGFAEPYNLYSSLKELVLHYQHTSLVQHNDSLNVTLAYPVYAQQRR
The target of a further assay is HDAC8 (Homo sapiens, UniProt Q9BY41). The assay can be described thus: Selectivity profile, single dose 0.5 µM, HDAC8. The assay is classed as biochemical. Conditions: remaining enzyme activity; single‐dose duplicate mode at 0.5 μM; read-out: Enzyme % activity (relative to DMSO controls) at 0.5 µM, HDAC8. As to the method: The inhibitory profiles of 5b and 5f were evaluated against selected HDAC isoforms (HDAC1, HDAC3, HDAC4, HDAC8, and HDAC10) and PI3K isoforms (PI3Kδ, PI3Kγ, and PI3Kβ) at a fixed concentration of 0.5 µM (Table 3). […] While we explored the phenyl ring in the linker region to achieve selectivity for the HDAC6 isoform, we still observed HDAC class I inhibition. […] It is important to highlight that PI3Kδ is mainly expressed in hematopoietic system and plays roles in leukocyte signaling, T‐cell activation, and immune cell trafficking. FDA‐approved drug idelalisib is a selective PI3Kδ inhibitor in B‐cell malignancies; however, this drug is also related to disruption of the immune system, which can lead to immune manifestations, such as infections. In addition, while isoform‐selective PI3K inhibitors are well tolerated, pan‐inhibition of PI3K is less expected that compensatory mechanisms by the action of other PI3Ks can take place. Thus, a more balanced profile of PI3K inhibition can lead to an overall lack of toxicity of PI3K inhibitors.
Sequence of HDAC8 (Q9BY41 whole entry, canonical isoform): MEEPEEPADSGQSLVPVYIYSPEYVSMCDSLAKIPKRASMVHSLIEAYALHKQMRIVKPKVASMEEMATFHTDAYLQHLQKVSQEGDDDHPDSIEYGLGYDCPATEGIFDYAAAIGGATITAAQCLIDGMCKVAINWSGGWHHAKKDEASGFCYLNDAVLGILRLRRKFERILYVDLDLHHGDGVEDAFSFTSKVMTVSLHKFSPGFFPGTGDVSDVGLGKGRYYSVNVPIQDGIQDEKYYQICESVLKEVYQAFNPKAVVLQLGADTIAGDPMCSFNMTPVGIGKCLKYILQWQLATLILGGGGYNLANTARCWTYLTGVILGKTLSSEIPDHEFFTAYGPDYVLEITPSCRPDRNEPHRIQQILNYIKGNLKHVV

The next assay concerns the target HDAC6 (Homo sapiens, UniProt Q9UBN7). Nature of the assay: HDAC6 inhibition, 10-dose IC50 (Reaction Biology Corporation). Conditions: 10‐dose IC50 mode, threefold serial dilutions starting at 1 μM. The assay is classed as biochemical.
Assay [1] concerns JIMT1 breast cancer cells. Nature of the assay: MTS cell viability assay, JIMT1. It counts as cell-based. To be noted: Homo sapiens, JIMT-1, 72 h treatment. The protocol:
(§1) The cell viability effects of compounds 5a–5f were assessed in LY2, JIMT1, and MDA‐MB‐231 breast cancer cell lines using the 3‐(4,5‐dimethylthiazol‐2‐yl)‐5‐(3‐carboxymethoxyphenyl)‐2‐(4‐sulfophenyl)‐2H‐tetrazolium (MTS) assay. The MTS assay measures metabolic viability and serves as a first‐pass screen.
(§2) JIMT‐1 (DSMZ ACC 589) and MDA‐MB‐231 (ATCC HTB‐26) breast cancer cell lines were maintained in Dulbecco's Modified Eagle Medium (DMEM) High Glucose with L‐glutamine (D5796, Sigma) supplemented with 10% fetal calf serum. MCF7‐derivative LY2 breast cancer cells were previously described (REF: PMID: 33420368). LY2 cells were cultured in phenol red‐free MEM (PRF‐MEM; 51 200‐046, Gibco) supplemented with 10% charcoal dextran‐stripped fetal calf serum (CDS‐FCS; F6765, Merck), 2 mmol/L L‐glutamine (G7513, Merck), and 10^−8 mol/L 4‐hydroxytamoxifen (4‐OHT; H7904, Merck). All cell lines were maintained at 37°C in a humidified incubator with 5% CO2 and regularly authenticated and tested for mycoplasma.
(§3) Cell viability was evaluated in response to increasing concentrations of 5a‐5f (0.3, 1, 3, 10, and 30 μM) or vehicle control (0.1% DMSO). LY2, JIMT1, and MDA‐MB‐231 cells were seeded at a density of 2,500 cells per well in 96‐well plates with a total volume of 100 μL per well. Prior to treatment, cells were serum‐deprived for 24 h. Following serum depletion, cells were treated in complete growth medium for 72 h. Cell viability was assessed using the MTS assay (G1111, Promega) according to the manufacturer's instructions. Absorbance was measured at 495 nm using a BioTek Synergy HTX Multi‐Mode Microplate Reader (Agilent). Results were normalized to the vehicle control (DMSO), and the half‐maximal inhibitory concentration (IC50) of the inhibitors was determined by nonlinear regression (curve fit) using a four‐parameter variable slope model.
A general note: Formazan colour is commonly taken as a measure of viable cells.

The next assay has as its system LY2 breast cancer cells. The assay can be described thus: MTS cell viability assay, LY2. The assay is classed as cell-based. Conditions: 72 h treatment. As to the method:
as §1, §2, §3

Sequence of HDAC6 (Q9UBN7 whole entry): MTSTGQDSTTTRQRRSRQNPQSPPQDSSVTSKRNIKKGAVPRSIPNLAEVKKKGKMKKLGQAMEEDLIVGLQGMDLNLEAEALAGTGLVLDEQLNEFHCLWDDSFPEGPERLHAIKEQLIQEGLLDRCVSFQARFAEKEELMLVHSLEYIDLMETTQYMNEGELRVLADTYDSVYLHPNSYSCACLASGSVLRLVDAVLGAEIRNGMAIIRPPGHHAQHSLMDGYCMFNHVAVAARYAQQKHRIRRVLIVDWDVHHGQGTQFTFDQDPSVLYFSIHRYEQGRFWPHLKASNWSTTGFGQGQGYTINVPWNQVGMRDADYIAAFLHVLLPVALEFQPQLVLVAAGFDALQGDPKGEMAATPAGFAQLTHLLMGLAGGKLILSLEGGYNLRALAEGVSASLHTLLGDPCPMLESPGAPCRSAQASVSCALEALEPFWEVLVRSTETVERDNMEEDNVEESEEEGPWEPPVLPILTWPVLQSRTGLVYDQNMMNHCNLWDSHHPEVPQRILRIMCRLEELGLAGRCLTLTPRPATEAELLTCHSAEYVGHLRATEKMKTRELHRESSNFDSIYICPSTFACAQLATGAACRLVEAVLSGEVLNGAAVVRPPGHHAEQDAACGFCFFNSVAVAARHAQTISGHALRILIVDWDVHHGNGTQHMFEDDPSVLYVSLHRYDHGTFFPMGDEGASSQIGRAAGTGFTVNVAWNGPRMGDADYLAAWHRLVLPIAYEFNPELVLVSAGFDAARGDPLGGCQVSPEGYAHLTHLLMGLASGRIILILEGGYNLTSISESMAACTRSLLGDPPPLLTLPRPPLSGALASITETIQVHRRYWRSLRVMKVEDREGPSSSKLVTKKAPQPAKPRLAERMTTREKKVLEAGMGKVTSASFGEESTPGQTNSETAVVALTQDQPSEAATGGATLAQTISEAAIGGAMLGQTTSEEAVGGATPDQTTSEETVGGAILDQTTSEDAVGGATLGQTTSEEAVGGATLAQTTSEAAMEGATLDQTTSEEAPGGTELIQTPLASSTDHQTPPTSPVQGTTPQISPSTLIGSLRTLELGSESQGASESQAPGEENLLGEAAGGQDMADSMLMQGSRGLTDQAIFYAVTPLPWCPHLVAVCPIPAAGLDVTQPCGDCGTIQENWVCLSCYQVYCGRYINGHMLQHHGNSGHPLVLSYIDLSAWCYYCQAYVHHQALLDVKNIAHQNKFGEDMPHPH

Consider `COc1ccc(-c2nc(NCc3ccc(C(=O)NO)cc3)nc(N3CCOCC3)n2)cn1` [Compound 5f, N‐Hydroxy‐4‐(((4‐(6‐Methoxypyridin‐3‐yl)‐6‐Morpholino‐1,3,5‐Triazin‐2‐yl)Amino)Methyl)Benzamide], for which the IC50 (usually the point on the concentration scale where inhibition reaches its midpoint) was 236 nM against PI3Kα; 6.02 nM and 6 nM against HDAC6; 3.5 ± 0.95 µM in assay [1]; 8.81 ± 0.59 µM with LY2 breast cancer cells. The remaining activity at 0.5 µM on HDAC8 is 46.9%.
In the case of `O=C(NO)c1ccc(CNc2nc(-c3cccc(O)c3)nc(N3CCOCC3)n2)cc1` [Compound 5b, N‐Hydroxy‐4‐(((4‐(3‐Hydroxyphenyl)‐6‐Morpholino‐1,3,5‐Triazin‐2‐yl)Amino)Methyl)Benzamide], the concentration for half-maximal inhibition (IC50) is 17.5 nM against PI3Kα; 2.33 nM and 2.3 nM at HDAC6; 5.72 ± 0.76 µM in assay [1]; 4.68 ± 1.34 µM with LY2 breast cancer cells. Besides, on HDAC8, the remaining activity at 0.5 µM came out at 46.3%.
